Assay [1] has as its target T1, human Gcg receptor (Homo sapiens, UniProt P47871).
T1 construct: expressed in transfected cells; crude membranes
The assay is described as follows: [125I]-Glucagon binding (SPA), human Gcg receptor. The following applies: read-out: hGLcgR Ki, nM (SEM, n). In outline:
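Cell pellets were lysed in hypotonic Tris buffer, pH 7.5, homogenized, and spun at low then high speed to give crude membranes. Ki was derived from the fitted IC50.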

The target of assay [2] is human GLP-1R (Homo sapiens, UniProt P43220). In words: [125I]-GLP-1 binding (SPA), human GLP-1 receptor. Further details: expressed in transfected cells; crude membranes. The note with it: read-out: hGLP1R Ki, (nM) (SEM, n). The method in brief:
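Membranes: hypotonic lysis (50 mM Tris HCl, pH 7.5, protease inhibitors), Potter-Elvehjem homogenization, high-speed pellet (35000×g 1 h or 25000×g 30 min, 4° C.). Buffer: 25 mM HEPES pH 7.4, 2.5 mM CaCl2, 1 mM MgCl2. Four-parameter IC50 fit; Ki as geometric mean ± SEM.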

The target of assay [3] is T2, gastric inhibitory peptide receptor (GIPR) (Homo sapiens, UniProt P48546).
T2 sequence (P48546 22-466): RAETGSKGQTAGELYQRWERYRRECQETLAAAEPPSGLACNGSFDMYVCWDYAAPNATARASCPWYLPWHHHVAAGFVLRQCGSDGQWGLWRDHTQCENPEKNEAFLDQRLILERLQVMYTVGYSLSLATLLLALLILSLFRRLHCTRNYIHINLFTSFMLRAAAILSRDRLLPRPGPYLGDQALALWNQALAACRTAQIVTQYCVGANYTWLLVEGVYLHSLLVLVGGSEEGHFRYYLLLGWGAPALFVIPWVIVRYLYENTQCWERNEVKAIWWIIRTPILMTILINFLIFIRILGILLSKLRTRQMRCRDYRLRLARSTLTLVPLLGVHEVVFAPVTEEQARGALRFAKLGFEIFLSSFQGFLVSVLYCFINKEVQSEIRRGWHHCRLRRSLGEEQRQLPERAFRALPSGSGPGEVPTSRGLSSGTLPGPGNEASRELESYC
In words: cAMP pharmacological functional assay in presence of casein, hGIPR. In kind it is cell-based. The following applies: HEK293 cells expressing hGIPR, 0.1% Casein, geometric mean; read-out: hGIPR cAMP Rel EC50 nM (SEM, n).

Assay [4] addresses T3, human GIP receptor (Homo sapiens, UniProt P48546).
T3 construct: expressed in transfected cells; crude membranes
T3 sequence (P48546 22-466): T2 sequence (P48546 22-466)
In words: [125I]-GIP binding (SPA), human GIP receptor. The note with it: read-out: hGIPR Ki, nM (SEM, n).

Assay [5] addresses human GLP-1 receptor (GLP-1R) (Homo sapiens, UniProt P43220). The assay is described as follows: cAMP pharmacological functional assay in presence of casein, hGLP-1R. In kind it is cell-based. The note with it: HEK293 cells expressing hGLP-1R, 0.1% Casein, geometric mean; read-out: hGLP1R cAMP Rel EC50 nM (SEM, n).

SMILES strings stand for the structures. Numbered stars: 1 amine (or outer) side, 2 acyl side, 3 side chain; on linkers, the order of the positions; unused ones are H or OH. Square brackets hold non-standard residues; d marks the D form. Side chains are listed from the residue outwards. Peptide text beside a SMILES is read from it. * marks the point of attachment. C20 diacid = O=C(O)CCCCCCCCCCCCCCCCCCC(=O)*; C18 diacid = O=C(O)CCCCCCCCCCCCCCCCC(=O)*; αMePhe(2-F) = C[C@](N)(Cc1ccccc1F)C(=O)O; γGlu = O=C(O)[C@H](CCC(=O)[*:2])N[*:1]; αMeY = C[C@](N)(Cc1ccc(O)cc1)C(=O)O; αMeF = C[C@](N)(Cc1ccccc1)C(=O)O; αMeL = CC(C)C[C@](C)(N)C(=O)O; AEEA = NCCOCCOCC(=O)O; Aib = CC(C)(N)C(=O)O

human GLP-1 receptor (GLP-1R), sequence (P43220 24-463): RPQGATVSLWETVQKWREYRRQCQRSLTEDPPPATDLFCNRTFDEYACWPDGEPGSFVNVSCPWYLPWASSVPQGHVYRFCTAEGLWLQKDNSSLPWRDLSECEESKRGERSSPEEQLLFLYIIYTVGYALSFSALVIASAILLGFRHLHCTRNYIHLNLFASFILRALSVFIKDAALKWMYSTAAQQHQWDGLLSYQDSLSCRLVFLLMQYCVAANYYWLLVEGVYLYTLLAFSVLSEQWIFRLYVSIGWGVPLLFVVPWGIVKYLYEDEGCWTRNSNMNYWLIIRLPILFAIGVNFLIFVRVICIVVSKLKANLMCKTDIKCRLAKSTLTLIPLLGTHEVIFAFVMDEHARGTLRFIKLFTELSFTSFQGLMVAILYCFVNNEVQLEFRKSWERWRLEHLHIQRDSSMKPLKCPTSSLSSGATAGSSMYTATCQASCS
human GLP-1R, sequence (P43220 24-463): as above
T1 sequence (P47871 26-477): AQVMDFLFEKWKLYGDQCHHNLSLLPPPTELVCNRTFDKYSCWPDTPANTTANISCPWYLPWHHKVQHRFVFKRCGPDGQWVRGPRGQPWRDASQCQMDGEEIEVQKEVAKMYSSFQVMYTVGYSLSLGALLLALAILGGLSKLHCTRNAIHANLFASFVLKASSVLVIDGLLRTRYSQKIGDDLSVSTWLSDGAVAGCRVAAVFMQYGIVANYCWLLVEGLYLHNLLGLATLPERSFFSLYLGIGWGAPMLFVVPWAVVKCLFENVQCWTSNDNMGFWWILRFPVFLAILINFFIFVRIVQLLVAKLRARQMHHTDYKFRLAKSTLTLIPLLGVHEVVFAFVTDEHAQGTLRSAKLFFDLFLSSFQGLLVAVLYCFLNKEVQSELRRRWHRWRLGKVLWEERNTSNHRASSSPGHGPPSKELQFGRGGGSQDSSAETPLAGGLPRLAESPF

By Ki is commonly meant the dissociation constant of the complex between target and ligand, obtained from inhibition or displacement. As usually defined, the EC50 is the concentration that produces a half-maximal response. Turning to `CC[C@H](C)[C@H](NC(=O)[C@H](CC(C)C)NC(=O)[C@](C)(Cc1ccc(O)cc1)NC(=O)[C@@H](CCC(=O)O)NC(=O)[C@@H](NC(=O)[C@H](Cc1ccccc1)NC(=O)[C@H](CCC(=O)O)NC(=O)C(C)(C)NC(=O)[C@H](CCC(N)=O)NC(=O)[C@H](C)NC(=O)[C@H](CCCCNC(=O)COCCOCCNC(=O)COCCOCCNC(=O)CC[C@H](NC(=O)CCCCCCCCCCCCCCCCCCC(=O)O)C(=O)O)NC(=O)[C@H](CCC(=O)O)NC(=O)[C@H](CC(=O)O)NC(=O)[C@H](CC(C)C)NC(=O)[C@](C)(CC(C)C)NC(=O)[C@@H](NC(=O)[C@H](CO)NC(=O)[C@H](Cc1ccc(O)cc1)NC(=O)[C@H](CC(=O)O)NC(=O)[C@H](CO)NC(=O)[C@@H](NC(=O)[C@](C)(Cc1ccccc1F)NC(=O)[C@@H](NC(=O)CNC(=O)[C@H](CCC(=O)O)NC(=O)C(C)(C)NC(=O)[C@@H](N)Cc1ccc(O)cc1)[C@@H](C)O)[C@@H](C)O)[C@@H](C)CC)[C@@H](C)CC)C(=O)N[C@@H](CCC(=O)O)C(=O)NCC(=O)NCC(=O)N1CCC[C@H]1C(=O)N[C@@H](CO)C(=O)N[C@@H](CO)C(=O)NCC(=O)N[C@@H](C)C(=O)N1CCC[C@H]1C(=O)N1CCC[C@H]1C(=O)N1CCC[C@H]1C(=O)N[C@@H](CO)C(N)=O` [Example 222] (H-Y[Aib]EGT[αMePhe(2-F)]TSDYSI[αMeL]LDEK([AEEA-AEEA-γGlu-C20 diacid])AQ[Aib]EFI[dE][αMeY]LIEGGPSSGAPPPS-NH2; N-terminus assumed), the Ki in assay [1] turned out to be 71.3 nM; in assay [2] it was 3.59 nM; in assay [4], 0.0495 nM. Further, the half-maximal effective concentration (EC50) is 0.0306 nM in assay [3] and 0.0248 nM in assay [5].
Taken in the same sequence, the figures for `CC[C@H](C)[C@H](NC(=O)[C@H](CCCCN)NC(=O)[C@H](CC(=O)O)NC(=O)[C@H](CC(C)C)NC(=O)[C@H](CC(C)C)NC(=O)[C@@H](NC(=O)[C@H](CO)NC(=O)[C@H](Cc1ccc(O)cc1)NC(=O)[C@H](CC(=O)O)NC(=O)[C@H](CO)NC(=O)[C@@H](NC(=O)[C@H](Cc1ccccc1)NC(=O)[C@@H](NC(=O)CNC(=O)[C@H](CCC(=O)O)NC(=O)C(C)(C)NC(=O)[C@@H](N)Cc1ccc(O)cc1)[C@@H](C)O)[C@@H](C)O)[C@@H](C)CC)C(=O)N[C@@H](C)C(=O)N[C@@H](CCC(N)=O)C(=O)NC(C)(C)C(=O)N[C@@H](C)C(=O)N[C@@H](Cc1ccccc1)C(=O)N[C@H](C(=O)N[C@@H](CCC(=O)O)C(=O)N[C@@H](Cc1ccc(O)cc1)C(=O)N[C@@H](CCCCNC(=O)COCCOCCNC(=O)COCCOCCNC(=O)CC[C@H](NC(=O)CCCCCCCCCCCCCCCCCCC(=O)O)C(=O)O)C(=O)N[C@H](C(=O)N[C@@H](CCC(=O)O)C(=O)NCC(=O)NCC(=O)N1CCC[C@H]1C(=O)N[C@@H](CO)C(=O)N[C@@H](CO)C(=O)NCC(=O)N[C@@H](C)C(=O)N1CCC[C@H]1C(=O)N1CCC[C@H]1C(=O)N1CCC[C@H]1C(=O)N[C@@H](CO)C(N)=O)[C@@H](C)CC)[C@@H](C)CC` [Example 35] (H-Y[Aib]EGTFTSDYSILLDKIAQ[Aib]AFIEYK([AEEA-AEEA-γGlu-C20 diacid])IEGGPSSGAPPPS-NH2) were over 964 nM, 54.6 nM, 0.0358 nM, 0.0905 nM and 8.38 nM.
The like results for `CC[C@H](C)[C@H](NC(=O)[C@H](CC(C)C)NC(=O)[C@H](Cc1ccc(O)cc1)NC(=O)[C@H](CCC(=O)O)NC(=O)[C@@H](NC(=O)[C@H](Cc1ccccc1)NC(=O)[C@H](C)NC(=O)C(C)(C)NC(=O)[C@H](CCC(N)=O)NC(=O)[C@H](C)NC(=O)[C@H](CCCCNC(=O)COCCOCCNC(=O)COCCOCCNC(=O)CC[C@H](NC(=O)CCCCCCCCCCCCCCCCCCC(=O)O)C(=O)O)NC(=O)[C@H](CCC(=O)O)NC(=O)[C@H](CC(=O)O)NC(=O)[C@H](CC(C)C)NC(=O)[C@](C)(CC(C)C)NC(=O)[C@@H](NC(=O)[C@H](CO)NC(=O)[C@H](Cc1ccc(O)cc1)NC(=O)[C@H](CC(=O)O)NC(=O)[C@H](CO)NC(=O)[C@@H](NC(=O)[C@](C)(Cc1ccccc1)NC(=O)[C@@H](NC(=O)CNC(=O)[C@H](CCC(=O)O)NC(=O)C(C)(C)NC(=O)[C@@H](N)Cc1ccccc1)[C@@H](C)O)[C@@H](C)O)[C@@H](C)CC)[C@@H](C)CC)C(=O)N[C@@H](CCC(=O)O)C(=O)NCC(=O)NCC(=O)N1CCC[C@H]1C(=O)N[C@@H](CO)C(=O)N[C@@H](CO)C(=O)NCC(=O)N[C@@H](C)C(=O)N1CCC[C@H]1C(=O)N1CCC[C@H]1C(=O)N1CCC[C@H]1C(=O)N[C@@H](CO)C(N)=O` [Example 119] (H-F[Aib]EGT[αMeF]TSDYSI[αMeL]LDEK([AEEA-AEEA-γGlu-C20 diacid])AQ[Aib]AFIEYLIEGGPSSGAPPPS-NH2) were, in that order, 30.6 nM, 9.87 nM, 0.0925 nM, 0.216 nM and 0.0913 nM.
The like results for `CC[C@H](C)[C@H](NC(=O)[C@H](CC(C)C)NC(=O)[C@H](Cc1ccc(O)cc1)NC(=O)[C@H](CCC(=O)O)NC(=O)[C@@H](NC(=O)[C@H](Cc1ccccc1)NC(=O)[C@H](C)NC(=O)[C@H](CCC(N)=O)NC(=O)[C@H](CCC(N)=O)NC(=O)[C@H](C)NC(=O)[C@H](CCCCNC(=O)COCCOCCNC(=O)COCCOCCNC(=O)CC[C@H](NC(=O)CCCCCCCCCCCCCCCCC(=O)O)C(=O)O)NC(=O)[C@H](CCCCN)NC(=O)[C@H](CC(=O)O)NC(=O)[C@H](CC(C)C)NC(=O)[C@H](CC(C)C)NC(=O)[C@@H](NC(=O)[C@H](CO)NC(=O)[C@H](Cc1ccc(O)cc1)NC(=O)[C@H](CC(=O)O)NC(=O)[C@H](CO)NC(=O)[C@@H](NC(=O)[C@H](Cc1ccccc1)NC(=O)[C@@H](NC(=O)CNC(=O)[C@H](CCC(=O)O)NC(=O)C(C)(C)NC(=O)[C@@H](N)Cc1ccc(O)cc1)[C@@H](C)O)[C@@H](C)O)[C@@H](C)CC)[C@@H](C)CC)C(=O)N[C@@H](CCC(=O)O)C(=O)NCC(=O)NCC(N)=O` [Example 294] (H-Y[Aib]EGTFTSDYSILLDKK([AEEA-AEEA-γGlu-C18 diacid])AQQAFIEYLIEGG-NH2) were, in that order, 629 nM, 2.92 nM, 0.205 nM, 0.183 nM and 0.185 nM.

The record behind these values is patent US12252524B2, “GIP/GLP1 co-agonist compounds” (Eli Lilly and Company, priority 2018, dated 2025).
